The text below walks through data of US20260306638A1, “COMPOUNDS AND USES THEREOF” (FOGHORN THERAPEUTICS INC., priority 2023, published 2026).

The target in test [1] is T1, HiBit-BRM fusion protein (Homo sapiens, UniProt P51531).
T1 construct: HiBiT; expressed in transfected cells
Put plainly: HiBiT-BRM degradation in a stable HeLa cell line (cell-based degradation assay, Nano-Glo HiBiT Lytic Detection). As to conditions: HeLa cells, 24 h; for Dmax: human, 30 μM top dose, read-out: BRM HiBit Degradation Maximum. As for the experimental part:
(§1) Procedure: A stable HeLa cell line expressing HiBiT-BRM was generated. On day 0, 5000 cells were seeded in 40 μL of media into each well of 384-well cell culture plates. On day 1, cells were treated with 120 nL DMSO or 120 nL of 3-fold serially DMSO-diluted compounds (10 points in duplicate with 30 µM as final top dose). Subsequently plates were incubated for 24 h in a standard tissue culture incubator and equilibrated at room temperature for 15 minutes. Nano-Glo HiBiT Lytic Detection System (Promega N3050) reagent was freshly prepared and 20 μl was added to each well. Upon addition of this LgBit-containing reagent, the HiBIT and LgBiT proteins associate to form the luminescent NanoBiT luciferase. The plates were shaken for 10 minutes at room temperature and the bioluminescence read using an En Vision plate reader (PerkinElmer).
(§2) The degradation % was calculated using the following formula: % degradation=100%−100%×(Lumsample−LumLC)/(LumHC−LumLC). DMSO treated cells are employed as High Control (HC) and 2 μM of a known BRM/BRG1 degrader standard treated cells are employed as Low Control (LC).

Test [2] deals with T2, HiBit-BRG1 fusion protein (Homo sapiens, UniProt P51532).
T2 construct: HiBiT; expressed in transfected cells
The experiment in a line: HiBit-BRG1 degradation in a stable HeLa cell line expressing HiBit-BRG1 and LgBit (cell-based degradation assay). As to conditions: HeLa cells, 24 h; for Dmax: human, 30 μM top dose, read-out: BRG1 HiBit Degradation Maximum. As for the experimental part:
as §1
For measurement of BRG1 degradation, a stable HeLa cell line expressing HiBit-BRG1 and LgBit was generated. The same protocol as above was then followed.
as §2

T2 sequence (P51532 whole entry, the tested form may be a part): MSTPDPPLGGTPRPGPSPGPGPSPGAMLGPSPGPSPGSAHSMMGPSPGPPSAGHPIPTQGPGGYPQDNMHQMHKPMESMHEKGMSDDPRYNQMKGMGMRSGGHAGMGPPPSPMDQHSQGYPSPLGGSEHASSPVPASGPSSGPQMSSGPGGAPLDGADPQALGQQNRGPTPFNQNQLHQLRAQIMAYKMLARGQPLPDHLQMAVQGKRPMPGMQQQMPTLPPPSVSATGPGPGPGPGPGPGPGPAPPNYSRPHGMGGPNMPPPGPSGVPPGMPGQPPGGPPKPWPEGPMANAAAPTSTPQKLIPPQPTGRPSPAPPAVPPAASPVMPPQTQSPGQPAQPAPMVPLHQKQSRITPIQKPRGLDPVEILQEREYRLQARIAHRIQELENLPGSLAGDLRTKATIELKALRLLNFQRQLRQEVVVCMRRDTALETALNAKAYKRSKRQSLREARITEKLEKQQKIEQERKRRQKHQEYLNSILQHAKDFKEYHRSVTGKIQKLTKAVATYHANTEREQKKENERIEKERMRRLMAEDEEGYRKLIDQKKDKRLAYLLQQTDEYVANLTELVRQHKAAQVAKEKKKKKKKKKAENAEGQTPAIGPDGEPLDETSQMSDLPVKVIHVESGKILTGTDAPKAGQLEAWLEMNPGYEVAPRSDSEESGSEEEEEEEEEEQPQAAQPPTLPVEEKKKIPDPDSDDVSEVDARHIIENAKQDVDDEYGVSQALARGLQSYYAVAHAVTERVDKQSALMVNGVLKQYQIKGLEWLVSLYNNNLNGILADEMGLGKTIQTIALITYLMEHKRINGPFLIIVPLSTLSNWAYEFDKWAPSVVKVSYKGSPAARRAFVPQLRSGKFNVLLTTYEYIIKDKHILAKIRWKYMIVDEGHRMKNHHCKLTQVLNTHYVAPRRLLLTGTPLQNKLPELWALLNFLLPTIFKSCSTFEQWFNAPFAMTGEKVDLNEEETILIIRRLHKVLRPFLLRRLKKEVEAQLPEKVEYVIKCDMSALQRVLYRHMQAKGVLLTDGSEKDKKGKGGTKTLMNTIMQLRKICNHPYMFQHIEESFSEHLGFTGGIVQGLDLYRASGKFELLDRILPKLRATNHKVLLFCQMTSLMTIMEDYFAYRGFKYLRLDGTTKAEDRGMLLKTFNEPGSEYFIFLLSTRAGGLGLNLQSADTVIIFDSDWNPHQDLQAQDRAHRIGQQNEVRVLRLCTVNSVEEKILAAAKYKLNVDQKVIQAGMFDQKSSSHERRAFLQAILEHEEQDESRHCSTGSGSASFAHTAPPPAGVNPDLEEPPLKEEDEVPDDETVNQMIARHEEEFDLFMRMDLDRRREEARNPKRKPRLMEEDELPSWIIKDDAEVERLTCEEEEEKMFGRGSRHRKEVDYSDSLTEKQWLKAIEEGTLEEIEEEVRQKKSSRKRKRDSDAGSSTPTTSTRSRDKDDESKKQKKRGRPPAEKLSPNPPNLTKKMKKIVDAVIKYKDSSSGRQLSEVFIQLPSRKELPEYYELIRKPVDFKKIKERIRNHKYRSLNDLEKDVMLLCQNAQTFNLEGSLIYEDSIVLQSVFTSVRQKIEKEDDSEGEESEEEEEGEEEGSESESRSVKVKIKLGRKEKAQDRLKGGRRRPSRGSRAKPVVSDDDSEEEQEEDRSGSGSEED
T1 sequence (P51531 whole entry, the tested form may be a part): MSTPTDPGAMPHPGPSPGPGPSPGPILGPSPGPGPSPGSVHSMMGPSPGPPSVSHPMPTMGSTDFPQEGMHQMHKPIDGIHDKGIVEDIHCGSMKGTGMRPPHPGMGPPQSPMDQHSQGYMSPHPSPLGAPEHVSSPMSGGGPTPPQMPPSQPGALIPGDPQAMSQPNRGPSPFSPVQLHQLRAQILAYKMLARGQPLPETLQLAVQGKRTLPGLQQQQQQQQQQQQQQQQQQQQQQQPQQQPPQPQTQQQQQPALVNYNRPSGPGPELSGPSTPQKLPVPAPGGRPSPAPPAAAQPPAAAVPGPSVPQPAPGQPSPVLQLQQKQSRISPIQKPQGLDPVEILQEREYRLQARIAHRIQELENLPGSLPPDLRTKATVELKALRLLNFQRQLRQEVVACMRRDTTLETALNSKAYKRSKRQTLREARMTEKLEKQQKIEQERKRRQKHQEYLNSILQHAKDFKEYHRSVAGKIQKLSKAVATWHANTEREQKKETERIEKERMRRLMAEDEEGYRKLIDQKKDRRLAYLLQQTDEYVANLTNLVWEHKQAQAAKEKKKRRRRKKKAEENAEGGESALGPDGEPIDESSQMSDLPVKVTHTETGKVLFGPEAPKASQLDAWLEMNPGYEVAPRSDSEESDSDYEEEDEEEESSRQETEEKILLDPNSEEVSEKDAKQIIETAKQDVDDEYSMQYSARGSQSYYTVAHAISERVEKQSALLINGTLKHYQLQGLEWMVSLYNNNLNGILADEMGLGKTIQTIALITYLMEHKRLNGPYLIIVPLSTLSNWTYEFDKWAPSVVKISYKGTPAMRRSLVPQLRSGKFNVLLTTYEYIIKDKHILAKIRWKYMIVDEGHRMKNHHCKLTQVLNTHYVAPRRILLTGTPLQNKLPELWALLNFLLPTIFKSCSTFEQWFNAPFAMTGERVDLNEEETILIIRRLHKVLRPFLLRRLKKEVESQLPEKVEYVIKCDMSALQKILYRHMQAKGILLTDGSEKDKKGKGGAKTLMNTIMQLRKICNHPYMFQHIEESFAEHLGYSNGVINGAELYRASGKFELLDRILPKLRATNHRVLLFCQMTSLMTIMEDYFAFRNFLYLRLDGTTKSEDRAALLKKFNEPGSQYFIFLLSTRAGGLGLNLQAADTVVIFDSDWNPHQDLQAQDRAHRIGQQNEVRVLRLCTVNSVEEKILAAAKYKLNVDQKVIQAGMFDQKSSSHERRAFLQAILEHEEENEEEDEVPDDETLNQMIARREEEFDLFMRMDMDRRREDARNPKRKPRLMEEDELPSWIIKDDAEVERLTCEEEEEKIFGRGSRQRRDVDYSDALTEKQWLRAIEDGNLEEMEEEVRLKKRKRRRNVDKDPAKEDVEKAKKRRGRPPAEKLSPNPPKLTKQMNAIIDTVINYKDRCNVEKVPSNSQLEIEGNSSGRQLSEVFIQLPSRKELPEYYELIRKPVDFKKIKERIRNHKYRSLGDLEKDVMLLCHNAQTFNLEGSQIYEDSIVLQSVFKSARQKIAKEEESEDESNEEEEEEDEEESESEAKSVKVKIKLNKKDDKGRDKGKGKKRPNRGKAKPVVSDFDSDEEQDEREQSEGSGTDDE

Regarding `Cc1nc2cc(-c3ccccc3O)nnc2cc1N1CC2(CN(c3cc([C@H](C(=O)N4C[C@H](O)C[C@H]4C(=O)N[C@@H](C)c4ccc(-c5scnc5C)cc4)C(C)C)on3)C2)C1` [Compound 3, (2S,4R)-4-hydroxy-1-[(2R)-2-(3-{6-[3-(2-hydroxyphenyl)-6-methylpyrido[3,2-c]pyridazin-7-yl]-2,6-diazaspiro[3.3]heptan-2-yl}-1,2-oxazol-5-yl)-3-methylbutanoyl]-N-[(1S)-1-[4-(4-methyl-1,3-thiazol-5-yl)phenyl]ethyl]pyrrolidine-2-carboxamide], in test [1], the DC50 is less than 10 nM and the Dmax is not below 75%. Moreover, in test [2], the Dmax is less than 50%.

Turning to `Cc1ncsc1-c1ccc([C@H](C)NC(=O)[C@@H]2C[C@@H](O)CN2C(=O)[C@@H](c2cc(N3CC4(C3)CN(c3cc5nnc(-c6ccccc6O)cc5n(C)c3=O)C4)no2)C(C)C)cc1` (single isomer, unassigned) [Compound 4], in test [1], the DC50 was less than 10 nM and the Dmax is not below 75%. In addition, the Dmax in test [2] is less than 50%.

`Cc1ncsc1-c1ccc([C@H](C)NC(=O)[C@@H]2C[C@@H](O)CN2C(=O)[C@H](C(C)C)n2cc(-c3ccc4nnc(-c5ccccc5O)cc4n3)nn2)cc1` [Compound 2, (2S,4R)-4-hydroxy-1-[(2S)-2-{4-[3-(2-hydroxyphenyl)pyrido[3,2-c]pyridazin-6-yl]-1,2,3-triazol-1-yl}-3-methylbutanoyl]-N-[(1S)-1-[4-(4-methyl-1,3-thiazol-5-yl)phenyl]ethyl]pyrrolidine-2-carboxamide]: the DC50 in test [1] and in test [2] (read-out: BRMG1 HiBit Degradation DC50) was less than 10 nM each time. The Dmax in test [1] and in test [2] was not below 75% each time.

As to `Cc1ncsc1-c1ccc([C@H](C)NC(=O)[C@@H]2C[C@@H](O)CN2C(=O)[C@@H](c2cc(N3CC4(C3)CN(c3ccc5nnc(-c6ccccc6O)cc5n3)C4)no2)C(C)C)cc1` [Compound 1, (2S,4R)-4-hydroxy-1-[(2R)-2-(3-{6-[3-(2-hydroxyphenyl)pyrido[3,2-c]pyridazin-6-yl]-2,6-diazaspiro[3.3]heptan-2-yl}-1,2-oxazol-5-yl)-3-methylbutanoyl]-N-[(1S)-1-[4-(4-methyl-1,3-thiazol-5-yl)phenyl]ethyl]pyrrolidine-2-carboxamide], in test [1], the DC50 was less than 10 nM. Further, the results for the Dmax in test [1] and in test [2] were not below 75% and less than 50%, respectively.
